Laboratory results taken from patent US10206907B2, “Compounds useful for the treatment of degenerative and inflammatory diseases” (GALAPAGOS NV, priority 2008, dated 2019).
pEC50, pIC50: −log10 of the molar value. Read-outs that look alike come from different tables or passages of the source.

Experiments:
[1] = molecular target: Recombinant human JAK2 catalytic domain (Homo sapiens (Human), UniProt O60674); test: JAK2 inhibition assay; type: biochemical
Method in brief: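 Activity was taken as vehicle cpm minus cpm with 10 μM staurosporine, and inhibition was expressed on that scale. Incubation was 90 min at 30 °C, followed by acid quench, phosphoric acid washes and Microscint counting. Compounds were tested as dose series to obtain IC50.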

MMP13 in SW1353 cells = test: OSM/IL-1β signaling assay (MMP13 levels in SW1353 cells); type: cell-based; conditions: Homo sapiens; SW1353 cells, OSM and IL-1β triggered, MMP13 levels 48 hours after triggering; read-out: MMP13 EC50;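 note: secreted MMP13 captured by antibody, activated with APMA and its activity read by fluorescence, inhibition scaled between vehicle-treated triggered wells (0%) and untriggered wells (100%)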
[2] = Microsomal stability, human liver microsomes; type: in vitro ADME; conditions: percentage of compound remaining after 60 minutes, 3 μM compound
Method in brief: (§1)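 Percent parent remaining after 60 min was determined by LCMS against a time-zero sample quenched before microsome addition. Incubations ran at 37°C with liver microsomes and a G6PDH-based NADPH-regenerating cofactor mix. Quench was MeOH or ACN (1:1).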

[3] = tested on: JAK-STAT signalling in HeLa cells; test: JAK-STAT signalling assay (OSM-triggered pSTAT1(2)-luciferase reporter in HeLa cells); type: cell-based; conditions: Homo sapiens; HeLa cells, OSM-triggered pSTAT1(2)-luciferase reporter; read-out: STAT signalling EC50
Method in brief: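 Read-out is oncostatin M–driven pSTAT1(2)-luciferase activity, corrected by co-transfected LacZ β-galactosidase, in transiently transfected HeLa cells cultured overnight at 37 °C, 10% CO2. Inhibition percentages against positive and negative controls were plotted across doses to derive EC50.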

[4] = molecular target: Recombinant human TYK2 catalytic domain (Homo sapiens (Human), UniProt P29597); test: TYK2 inhibition assay; type: biochemical
Method: After 90 min at 30° C., reactions were stopped by adding of 25 μL/well of 150 mM phosphoric acid. […] Plates were washed 6 times with 300 μL per well of a 75 mM phosphoric acid solution and the bottom of the plates was sealed. 40 μL/well of Microscint-20 was added, the top of the plates was sealed and readout was performed using the Topcount (Perkin Elmer). Kinase activity was calculated by subtracting counts per minute (cpm) obtained in the presence of a positive control inhibitor (10 μM staurosporine) from cpm obtained in the presence of vehicle. The ability of a test compound to inhibit this activity was determined as: Percentage inhibition=((cpm determined for sample with test compound present−cpm determined for sample with positive control inhibitor) divided by (cpm determined in the presence of vehicle−cpm determined for sample with positive control inhibitor))*100%.
Dose dilution series were prepared for the compounds enabling the testing of dose-response effects in the TYK2 assay and the calculation of the IC50 for each compound.

[5] = Microsomal stability, rat liver microsomes; type: in vitro ADME; conditions: percentage of compound remaining after 60 minutes, 3 μM compound
Method in brief: as §1

[6] = molecular target: Recombinant human JAK3 catalytic domain (Homo sapiens (Human), UniProt P52333); test: JAK3 inhibition assay; type: biochemical; conditions: semi-quantitative score
Method: Plates were washed 6 times with 300 μL per well of a 75 mM phosphoric acid solution and the bottom of the plates was sealed. 40 μL/well of Microscint-20 was added, the top of the plates was sealed and readout was performed using the Topcount (Perkin Elmer). Kinase activity was calculated by subtracting counts per minute (cpm) obtained in the presence of a positive control inhibitor (10 μM staurosporine) from cpm obtained in the presence of vehicle. The ability of a test compound to inhibit this activity was determined as: Percentage inhibition=((cpm determined for sample with test compound present−cpm determined for sample with positive control inhibitor) divided by (cpm determined in the presence of vehicle−cpm determined for sample with positive control inhibitor))*100%.
Dose dilution series were prepared for the compounds enabling the testing of dose-response effects in the JAK3 assay and the calculation of the IC50 for each compound.

[7] = molecular target: Recombinant human JAK1 catalytic domain (Homo sapiens (Human), UniProt P23458); test: JAK1 inhibition assay; type: biochemical
Method in brief: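 IC50 values come from dose-response series, with each point expressed as percent inhibition of cpm. Vehicle sets full activity and 10 μM staurosporine sets background. Incorporated radioactivity counted by scintillation after washing with 75 mM phosphoric acid.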

[8] = Caco2 permeability (bi-directional); type: in vitro ADME, human; conditions: human, pH 7.4; for Papp A→B at 1 h, 10 µM: Caco-2, apical to basolateral, read-out: Papp (A2B); for efflux ratio at 1 h, 10 µM: Caco-2, ratio of PappB>A/PappA>B
Method in brief: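 Compound concentrations in both chambers were measured by LC-MS/MS after 1 h incubation at 37 °C on an orbital shaker. Efflux ratio is PappB>A over PappA>B. Lucifer Yellow (50 μM in donor) confirmed layer integrity, with permeability of ≤100 nm/s required.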

Sequence of Recombinant human TYK2 catalytic domain (P29597 871-1187): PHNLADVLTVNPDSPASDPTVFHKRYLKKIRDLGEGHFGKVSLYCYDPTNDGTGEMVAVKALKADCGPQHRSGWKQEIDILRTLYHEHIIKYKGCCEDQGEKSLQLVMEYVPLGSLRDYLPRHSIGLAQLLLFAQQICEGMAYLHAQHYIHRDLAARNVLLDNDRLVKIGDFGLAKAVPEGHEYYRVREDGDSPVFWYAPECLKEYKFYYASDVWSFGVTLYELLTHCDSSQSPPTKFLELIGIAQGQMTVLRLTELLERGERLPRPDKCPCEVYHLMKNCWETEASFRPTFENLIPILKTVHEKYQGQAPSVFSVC
Sequence of Recombinant human JAK3 catalytic domain (P52333 781-1124): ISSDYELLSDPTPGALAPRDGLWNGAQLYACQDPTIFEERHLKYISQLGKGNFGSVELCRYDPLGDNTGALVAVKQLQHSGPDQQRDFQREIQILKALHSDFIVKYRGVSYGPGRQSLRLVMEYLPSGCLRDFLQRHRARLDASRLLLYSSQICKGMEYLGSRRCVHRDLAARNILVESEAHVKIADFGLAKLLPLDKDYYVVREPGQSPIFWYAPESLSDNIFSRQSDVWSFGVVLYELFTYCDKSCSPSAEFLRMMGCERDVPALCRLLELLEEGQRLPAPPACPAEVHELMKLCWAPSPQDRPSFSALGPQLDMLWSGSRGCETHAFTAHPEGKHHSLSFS
Sequence of Recombinant human JAK1 catalytic domain (P23458 850-1154): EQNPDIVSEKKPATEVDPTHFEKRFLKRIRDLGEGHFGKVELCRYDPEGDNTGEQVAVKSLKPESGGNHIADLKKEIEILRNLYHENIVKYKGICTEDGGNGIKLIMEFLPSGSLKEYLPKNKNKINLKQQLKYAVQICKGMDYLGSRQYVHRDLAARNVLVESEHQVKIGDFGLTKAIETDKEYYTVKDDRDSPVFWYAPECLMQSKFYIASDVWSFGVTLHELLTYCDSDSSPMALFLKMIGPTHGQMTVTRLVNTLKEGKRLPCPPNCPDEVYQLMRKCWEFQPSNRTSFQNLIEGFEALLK
Sequence of Recombinant human JAK2 catalytic domain (O60674 808-1132): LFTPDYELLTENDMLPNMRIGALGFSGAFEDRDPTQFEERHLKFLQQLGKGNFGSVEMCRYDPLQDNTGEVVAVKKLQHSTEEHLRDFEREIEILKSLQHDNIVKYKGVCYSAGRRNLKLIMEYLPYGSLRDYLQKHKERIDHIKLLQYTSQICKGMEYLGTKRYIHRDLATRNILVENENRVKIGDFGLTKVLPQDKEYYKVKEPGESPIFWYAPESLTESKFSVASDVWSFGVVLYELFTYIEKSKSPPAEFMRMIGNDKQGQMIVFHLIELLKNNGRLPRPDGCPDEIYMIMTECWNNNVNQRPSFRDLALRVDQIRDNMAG

Structure (SMILES)	pIC50 ([1]; semi-quantitative score)	pEC50 (MMP13 in SW1353 cells)	Microsomal Stability Human (%) [2]	pEC50 [3]	pIC50 ([4]; semi-quantitative score)	Microsomal Stability Rat (%) [5]	pIC50 [6]	pIC50 ([7]; semi-quantitative score)	Papp A→B at 1 h, 10 µM [8]	efflux ratio at 1 h, 10 µM [8]	pIC50 [1]	pIC50 [4]	pIC50 [7]
O=C(Nc1nc2cccc(-c3ccc(OCC4CCC4)cc3)n2n1)C1CC1 [Compound 39, N-(5-(4-(cyclobutylmethoxy)phenyl)-[1,2,4]triazolo[1,5-a]pyridin-2-yl)cyclopropanecarboxamide]	> 7.00	< 6.00	** (** 26-50)	< 6.00	< 6.00	** (** 26-50)	< 6.00	> 7.00					
O=C(Nc1nc2cccc(-c3ccc(OCc4ccccc4)nc3)n2n1)C1CC1 [Compound 57, Cyclopropanecarboxylic Acid [5-(6-benzyloxy-pyridin-3-yl)-[1,2,4]triazolo[1,5-a]pyridin-2-yl]-amide]		< 6.00	** (** 26-50)	< 6.00		** (** 26-50)	6.00 to 6.30				> 7.00	< 6.00	> 7.00
O=C(Nc1nc2cccc(-c3ccc(Oc4ccccc4)cc3)n2n1)C1CC1 [Compound 46, N-(5-(4-phenoxyphenyl)-[1,2,4]triazolo[1,5-a]pyridin-2-yl)cyclopropanecarboxamide]	6.30 to 7.00	< 6.00	* (* 0-25)	< 6.00	< 6.00	* (* 0-25)	< 6.00	> 7.00					
O=C(Nc1nc2cccc(-c3ccc(NS(=O)(=O)c4ccc(F)cc4)cc3)n2n1)C1CC1 [Compound 33, N-(5-(4-(4-fluorophenylsulfonamido)phenyl)-[1,2,4]triazolo[1,5-a]pyridin-2-yl)cyclopropanecarboxamide]	> 7.00	< 6.00	**** (**** 76-100)	< 6.00	6.30 to 7.00	** (** 26-50)	< 6.00	> 7.00					
O=C(Nc1ccccc1)c1ccc(-c2cccc3nc(NC(=O)C4CC4)nn23)cc1 [Compound 43, 4-(2-(cyclopropanecarboxamido)-[1,2,4]triazolo[1,5-a]pyridin-5-yl)-N-phenylbenzamide]			**** (**** 76-100)		< 6.00	**** (**** 76-100)	< 6.00	6.30 to 7.00					
CN1CCN(c2ccc(-c3cccc4nc(NC(=O)C5CC5)nn34)cc2)CC1 [Compound 1, N-(5-(4-(4-methylpiperazin-1-yl)phenyl)-[1,2,4]triazolo[1,5-a]pyridin-2-yl)cyclopropanecarboxamide]	6.00 to 6.30				< 6.00		< 6.00	6.30 to 7.00					
O=C(Nc1nc2cccc(-c3ccc(OCC4CCCCC4)cc3)n2n1)C1CC1 [Compound 41, N-(5-(4-(cyclohexylmethoxy)phenyl)-[1,2,4]triazolo[1,5-a]pyridin-2-yl)cyclopropanecarboxamide]	6.30 to 7.00	6.00 to 6.30	** (** 26-50)	6.00 to 6.30	< 6.00	** (** 26-50)		> 7.00					

Further lines, with some results ahead:

pIC50 ([1]; semi-quantitative score)	pEC50 (MMP13 in SW1353 cells)	Microsomal Stability Human (%) [2]	pEC50 [3]	pIC50 ([4]; semi-quantitative score)	Microsomal Stability Rat (%) [5]	pIC50 [6]	pIC50 ([7]; semi-quantitative score)	Papp A→B at 1 h, 10 µM [8]	efflux ratio at 1 h, 10 µM [8]	Structure (SMILES)	pIC50 [1]	pIC50 [4]	pIC50 [7]
6.30 to 7.00	< 6.00	* (* 0-25)	< 6.00	< 6.00	* (* 0-25)	< 6.00	> 7.00			Cc1noc(C)c1COc1ccc(-c2cccc3nc(NC(=O)C4CC4)nn23)cc1 [Compound 49, N-(5-(4-((3,5-dimethylisoxazol-4-yl)methoxy)phenyl)-[1,2,4]triazolo[1,5-a]pyridin-2-yl)cyclopropanecarboxamide]			
6.30 to 7.00	< 6.00	**** (**** 76-100)	< 6.00	< 6.00	* (* 0-25)	< 6.00	> 7.00			O=C(NCc1ccccc1)c1ccc(-c2cccc3nc(NC(=O)C4CC4)nn23)cc1 [Compound 56, N-benzyl-4-(2-(cyclopropanecarboxamido)-[1,2,4]triazolo[1,5-a]pyridin-5-yl)benzamide]			
> 7.00	< 6.00	** (** 26-50)	< 6.00	< 6.00	* (* 0-25)	6.30 to 7.00	> 7.00			Cc1cc(COc2ccc(-c3cccc4nc(NC(=O)C5CC5)nn34)cc2)n(C)n1 [Compound 50]			
> 7.00	< 6.00	** (** 26-50)	< 6.00	< 6.00	* (* 0-25)	6.30 to 7.00	> 7.00			Cc1cc(COc2ccc(-c3cccc4nc(NC(=O)C5CC5)nn34)cc2)nn1C [Compound 62]			
6.30 to 7.00	< 6.00	* (* 0-25)	< 6.00	< 6.00	** (** 26-50)	< 6.00	> 7.00			O=C(N[C@H]1CCN(Cc2ccccc2)C1)c1ccc(-c2cccc3nc(NC(=O)C4CC4)nn23)cc1 [Compound 119, (S)-N-(1-benzylpyrrolidin-3-yl)-4-(2-(cyclopropanecarboxamido)-[1,2,4]triazolo[1,5-a]pyridin-5-yl)benzamide]			
6.30 to 7.00	< 6.00	*** (*** 51-75)	< 6.00	< 6.00	* (* 0-25)	6.00 to 6.30	> 7.00			O=C(COc1ccc(-c2cccc3nc(NC(=O)C4CC4)nn23)cc1)Nc1cccc(F)c1 [Compound 116, N-(5-(4-(2-(3-fluorophenylamino)-2-oxoethoxy)phenyl)-[1,2,4]triazolo[1,5-a]pyridin-2-yl)cyclopropanecarboxamide]			
6.30 to 7.00	< 6.00	**** (**** 76-100)	< 6.00	6.00 to 6.30	* (* 0-25)		> 7.00			O=C(Nc1nc2cccc(-c3ccc(-c4cccnc4)cc3)n2n1)C1CC1 [Compound 66, N-(5-(4-(pyridin-3-yl)phenyl)-[1,2,4]triazolo[1,5-a]pyridin-2-yl)cyclopropanecarboxamide]			
> 7.00	< 6.00	* (* 0-25)	< 6.00		* (* 0-25)	< 6.00	> 7.00	11.8 ×10⁻⁶ cm/s	3.23	O=C(NCCOc1ccccc1)c1ccc(-c2cccc3nc(NC(=O)C4CC4)nn23)c(F)c1 [Compound 100, 4-(2-(cyclopropanecarboxamido)-[1,2,4]triazolo[1,5-a]pyridin-5-yl)-3-fluoro-N-(2-phenoxyethyl)benzamide]			
> 7.00	6.00 to 6.30	* (* 0-25)	6.30 to 7.00		** (** 26-50)	6.30 to 7.00	> 7.00	23.8 ×10⁻⁶ cm/s	2.61	O=C(NCCc1ccc(C(F)(F)F)cc1)c1ccc(-c2cccc3nc(NC(=O)C4CC4)nn23)cc1 [Compound 97, 4-(2-(cyclopropanecarboxamido)-[1,2,4]triazolo[1,5-a]pyridin-5-yl)-N-(4-(trifluoromethyl)phenethyl) benzamide]			
